From ChEMBL document CHEMBL3885881, “DrugMatrix”

Organism: Rattus norvegicus
Assay: DrugMatrix - Regimen: Daily Repeat
Assay type: toxicity, organism-based, Sprague-Dawley
Design: regimen Daily Repeat, gender Male, age 6-8 weeks
Conditions: in vivo, po, 20 mg/kg, route oral GAVAGE, dose level Low, […]; for ABSOLUTE BASOPHIL / ABSOLUTE EOSINOPHIL / ABSOLUTE LYMPHOCYTE / ABSOLUTE MONOCYTE / ABSOLUTE SEGMENTED NEUTROPHIL / BASOPHIL / EOSINOPHIL / ERYTHROCYTE COUNT / HEMATOCRIT / HEMOGLOBIN / LEUKOCYTE COUNT / LYMPHOCYTE / MEAN CORPUSCULAR HEMOGLOBIN / MEAN CORPUSCULAR HEMOGLOBIN CONCENTRATION / MEAN CORPUSCULAR VOLUME / MONOCYTE / NEUTROPHIL / NUCLEATED RED BLOOD CELLS / PLATELET COUNT: tissue Blood; for ALANINE AMINOTRANSFERASE / ALBUMIN / ALKALINE PHOSPHATASE / ASPARTATE AMINOTRANSFERASE / BLOOD UREA NITROGEN / CARBON DIOXIDE / CHLORIDE / CHOLESTEROL / CREATINE PHOSPHOKINASE / CREATININE / GLUCOSE / LACTATE DEHYDROGENASE / LIPASE / PHOSPHORUS / POTASSIUM / SODIUM / TOTAL BILIRUBIN / TOTAL PROTEIN / URIC ACID: tissue Plasma

Compound: O=c1c(-c2ccc(O)cc2)coc2cc(O)cc(O)c12 [GENISTEIN]
- ABSOLUTE BASOPHIL (72 h, time 3 day): 0 CELLS/uL
- ABSOLUTE EOSINOPHIL (72 h, time 3 day): 0 CELLS/uL
- ABSOLUTE LYMPHOCYTE (72 h, time 3 day): 8352.33 CELLS/uL
- ABSOLUTE MONOCYTE (72 h, time 3 day): 117.33 CELLS/uL
- ABSOLUTE SEGMENTED NEUTROPHIL (72 h, time 3 day): 697 CELLS/uL
- BASOPHIL (72 h, time 3 day): 0%
- EOSINOPHIL (72 h, time 3 day): 0%
- ERYTHROCYTE COUNT (72 h, time 3 day): 4.71 x10E6/uL
- HEMATOCRIT (72 h, time 3 day): 30.2%
- HEMOGLOBIN (72 h, time 3 day): 12.1 G/DL
- LEUKOCYTE COUNT (72 h, time 3 day): 9.17 x10E3/uL
- LYMPHOCYTE (72 h, time 3 day): 91%
- MEAN CORPUSCULAR HEMOGLOBIN (72 h, time 3 day): 25.73 pg
- MEAN CORPUSCULAR HEMOGLOBIN CONCENTRATION (72 h, time 3 day): 40.07 G/DL
- MEAN CORPUSCULAR VOLUME (72 h, time 3 day): 64.27 fL
- MONOCYTE (72 h, time 3 day): 1.33%
- NEUTROPHIL (72 h, time 3 day): 7.67%
- NUCLEATED RED BLOOD CELLS (72 h, time 3 day): 0 /100WBC
- PLATELET COUNT (72 h, time 3 day): 970.67 x10E3/uL
- ALANINE AMINOTRANSFERASE (72 h, time 3 day): 69.33 u/L
- ALBUMIN (72 h, time 3 day): 3.73 G/DL
- ALKALINE PHOSPHATASE (72 h, time 3 day): 415.33 u/L
- ASPARTATE AMINOTRANSFERASE (72 h, time 3 day): 87 u/L
- BLOOD UREA NITROGEN (72 h, time 3 day): 14 mg/dL
- CARBON DIOXIDE (72 h, time 3 day): 31.33 mmol/L
- CHLORIDE (72 h, time 3 day): 101.33 MEQ/L
- CHOLESTEROL (72 h, time 3 day): 55.33 mg/dL
- CREATINE PHOSPHOKINASE (72 h, time 3 day): 256 u/L
- CREATININE (72 h, time 3 day): 0.16 mg/dL
- GLUCOSE (72 h, time 3 day): 157.33 mg/dL
- LACTATE DEHYDROGENASE (72 h, time 3 day): 72 u/L
- LIPASE (72 h, time 3 day): 10.33 u/L
- PHOSPHORUS (72 h, time 3 day): 9.33 mg/dL
- POTASSIUM (72 h, time 3 day): 5.54 MEQ/L
- SODIUM (72 h, time 3 day): 144.67 MEQ/L
- TOTAL BILIRUBIN (72 h, time 3 day): 0.2 mg/dL
- TOTAL PROTEIN (72 h, time 3 day): 5.43 G/DL
- URIC ACID (72 h, time 3 day): 0.37 mg/dL
- ABSOLUTE BASOPHIL (120 h, time 5 day): 0 CELLS/uL
- ABSOLUTE EOSINOPHIL (120 h, time 5 day): 0 CELLS/uL
- ABSOLUTE LYMPHOCYTE (120 h, time 5 day): 8287 CELLS/uL
- ABSOLUTE MONOCYTE (120 h, time 5 day): 65 CELLS/uL
- ABSOLUTE SEGMENTED NEUTROPHIL (120 h, time 5 day): 1548 CELLS/uL
- BASOPHIL (120 h, time 5 day): 0%
- EOSINOPHIL (120 h, time 5 day): 0%
- ERYTHROCYTE COUNT (120 h, time 5 day): 4.93 x10E6/uL
- HEMATOCRIT (120 h, time 5 day): 31.57%
- HEMOGLOBIN (120 h, time 5 day): 12.13 G/DL
- LEUKOCYTE COUNT (120 h, time 5 day): 9.9 x10E3/uL
- LYMPHOCYTE (120 h, time 5 day): 84%
- MEAN CORPUSCULAR HEMOGLOBIN (120 h, time 5 day): 24.67 pg
- MEAN CORPUSCULAR HEMOGLOBIN CONCENTRATION (120 h, time 5 day): 38.43 G/DL
- MEAN CORPUSCULAR VOLUME (120 h, time 5 day): 64.13 fL
- MONOCYTE (120 h, time 5 day): 1%
- NEUTROPHIL (120 h, time 5 day): 15%
- NUCLEATED RED BLOOD CELLS (120 h, time 5 day): 0.33 /100WBC
- PLATELET COUNT (120 h, time 5 day): 1213.67 x10E3/uL
- ALANINE AMINOTRANSFERASE (120 h, time 5 day): 61.33 u/L
- ALBUMIN (120 h, time 5 day): 3.83 G/DL
- ALKALINE PHOSPHATASE (120 h, time 5 day): 296.67 u/L
- ASPARTATE AMINOTRANSFERASE (120 h, time 5 day): 87.33 u/L
- BLOOD UREA NITROGEN (120 h, time 5 day): 17 mg/dL
- CARBON DIOXIDE (120 h, time 5 day): 33 mmol/L
- CHLORIDE (120 h, time 5 day): 98.5 MEQ/L
- CHOLESTEROL (120 h, time 5 day): 69.67 mg/dL
- CREATINE PHOSPHOKINASE (120 h, time 5 day): 277.33 u/L
- CREATININE (120 h, time 5 day): 0.12 mg/dL
- GLUCOSE (120 h, time 5 day): 143.33 mg/dL
- LACTATE DEHYDROGENASE (120 h, time 5 day): 87.67 u/L
- LIPASE (120 h, time 5 day): 11.67 u/L
- PHOSPHORUS (120 h, time 5 day): 10.4 mg/dL
- POTASSIUM (120 h, time 5 day): 5.69 MEQ/L
- SODIUM (120 h, time 5 day): 143.35 MEQ/L
- TOTAL BILIRUBIN (120 h, time 5 day): 0.0667 mg/dL
- TOTAL PROTEIN (120 h, time 5 day): 5.57 G/DL
- URIC ACID (120 h, time 5 day): 0.43 mg/dL
